This passage reports efflux ratio, inhibition and Ki results from patent publication US10011596B2, “2-amino-3-fluoro-3-(fluoromethyl)-6-methyl-6-phenyl-3,4,5,6-tetrahydropyridines as BACE1 inhibitors” (H. Lundbeck A/S, priority 2015, dated 2018).

In one data set the test system is P-gp (MDR1). Nature of the data set: MDCK-MDR1 assay (permeability, efflux ratio). The class given is in vitro ADME. Particulars: dog. Here is the method:
The permeability of the test compounds was assessed in MDCK-MDR1 cells that were cultured to confluency (4-6 days) in a 96 transwell plate. Test compounds were diluted with the transport buffer (HBSS+1% BSA) to a concentration of 0.5 μM and applied to the apical or basolateral side of the cell monolayer. Permeation of the test compounds from A to B direction or B to A direction was determined in triplicate over a 60-minute incubation time at 37° C. and 5% CO2 with a relative humidity of 95%. Test compounds were quantified by LC-MS/MS analysis based on the peaks area ratios of analyte/IS in both the receiver and donor wells of the transwell plate.
The apparent permeability coefficient Papp (cm/s) was calculated using the equation: Papp=(dCr/dt)×Vr/(A×C0)
Where dCr/dt is the cumulative concentration of compound in the receiver chamber as a function of time (μM/s); Vr is the solution volume in the receiver chamber (0.05 mL on the apical side; 0.25 mL on the basolateral side); A is the surface area for the transport, i.e. 0.0804 cm^2 for the area of the monolayer; C0 is the initial concentration in the donor chamber (μM).

In data set [1] the target is T1, human BACE1 (Homo sapiens, UniProt P56817). Nature of the data set: BACE1 efficacy assay (FRET-based, commercial BACE1 kit). On the set-up: purchased Life Technologies P2985. As to conditions: test compound at 10 μM. In kind it is biochemical. The method, then:
The efficacy assay was performed as a FRET-based assay using a commercially available BACE1 kit (Life Technologies, P2985). 2 μl test compound at 10 μM (final concentration) and 15 μl BACE1 enzyme from the kit (final concentration 3 nM) were preincubated for 15 minutes at room temperature before addition of 15 μl of substrate from the kit (250 nM final concentration) and incubated for additional 90 minutes at room temperature. The assay plate was subsequently read in a Pherastar (Ex540/Em590).

In data set [2] the target is T1, human BACE1. Nature of the data set: BACE1 binding assay (SPA-based, radioligand displacement). On the set-up: biotin (biotinylated form); made in house; host or cells: Freestyle HEK293 cells. Particulars: pH 4.5, 10 nM radioligand, 6 nM human BACE1, read-out: BACE1 binding affinity. Here is the method: The binding assay was performed as SPA-based assay using a biotinylated form of human BACE1 recombinantly expressed and subsequently purified from Freestyle HEK293 cells. The binding assay was run in a 50 mM sodium acetate buffer, pH 4.5 containing 50 mM NaCl and 0.03% Tween-20 in white clear bottom 384 plates (Corning #3653). 10 nM (final concentration) radioligand ([^3H]-N-((1S,2R)-1-benzyl-3-cyclopropylamino-2-hydroxy-propyl)-5-(methanesulfonyl-methyl-amino)-N-((R)-1-phenyl-ethyl)-isophthalamide) (TRQ11569 purchased from GE Healthcare) was mixed with test compound at a given concentration, 6 nM (final concentration) human BACE1 and 25 μg Streptavidin coated PVT core SPA beads (RPNQ0007, GE Healthcare Life Sciences) in a total volume of 40 μl. Several concentrations of each test compound were tested in the assay for IC50 determination. The plates were incubated for one hour at room temperature and counted in a WaIlac Trilux counter. […] For each test compound, a IC50 value (the concentration mediating 50% inhibition of the specific binding of the radioligand) was determined from concentration-response curve and used to calculate the Ki from the equation Ki=IC50/(1+L/Kd), where L and Kd are the final concentration of the radioligand used in the assay and the dissociation constant of the radioligand, respectively. The Kd of the radioligand was determined from saturation binding experiments.

T1 sequence (P56817 46-501): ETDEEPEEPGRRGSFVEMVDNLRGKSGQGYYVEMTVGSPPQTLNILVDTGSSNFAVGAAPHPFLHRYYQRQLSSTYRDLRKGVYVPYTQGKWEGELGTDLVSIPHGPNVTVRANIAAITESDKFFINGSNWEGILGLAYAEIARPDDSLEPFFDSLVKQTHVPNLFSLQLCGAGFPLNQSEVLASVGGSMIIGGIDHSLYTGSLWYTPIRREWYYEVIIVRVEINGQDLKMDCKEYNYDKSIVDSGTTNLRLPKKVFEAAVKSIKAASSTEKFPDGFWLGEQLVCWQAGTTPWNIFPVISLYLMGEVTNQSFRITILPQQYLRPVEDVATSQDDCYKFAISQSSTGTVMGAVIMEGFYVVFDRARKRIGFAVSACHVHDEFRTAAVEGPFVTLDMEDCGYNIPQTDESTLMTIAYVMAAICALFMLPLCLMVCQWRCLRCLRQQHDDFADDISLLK

As to `COc1ccc(C(=O)Nc2ccc(F)c([C@]3(C)CC[C@@](F)(CF)C(N)=N3)c2)nc1` [Compound 1, N-(3-((2S,5S)-6-Amino-5-fluoro-5-(fluoromethyl)-2-methyl-2,3,4,5-tetrahydropyridin-2-yl)-4-fluorophenyl)-5-methoxypicolinamide], the efflux ratio at 60 min, 0.5 µM in the data set on P-gp (MDR1) was 0.89. Moreover, at human BACE1 [1], the inhibition at 10 µM amounted to 106%. The Ki on human BACE1 [2] was 22 nM.

As to `[2H]C([2H])([2H])Oc1ccc(C(=O)Nc2ccc(F)c([C@]3(C)CC[C@@](F)(CF)C(N)=N3)c2)nc1` [Compound 2, N-(3-((2S,5S)-6-Amino-5-fluoro-5-(fluoromethyl)-2-methyl-2,3,4,5-tetrahydropyridin-2-yl)-4-fluorophenyl)-5-(methoxy-d3)picolinamide], in the data set on P-gp (MDR1), the efflux ratio at 60 min, 0.5 µM is 2.32. Also, at human BACE1 [1], the inhibition at 10 µM came to 104%. Besides, the Ki on human BACE1 [2] was 20 nM.

Turning to `Cc1cc(C#N)cnc1C(=O)Nc1ccc(F)c([C@]2(C)CC[C@@](F)(CF)C(N)=N2)c1` [Compound 3, N-(3-((2S,5S)-6-Amino-5-fluoro-5-(fluoromethyl)-2-methyl-2,3,4,5-tetrahydropyridin-2-yl)-4-fluorophenyl)-5-cyano-3-methylpicolinamide], the efflux ratio at 60 min, 0.5 µM with P-gp (MDR1) is 4.87. At human BACE1 [1], the inhibition at 10 µM was 105%. On human BACE1 [2], the Ki came out at 10 nM.

With `C[C@@]1(c2cc(NC(=O)c3ccc(Cl)cn3)ccc2F)CC[C@@](F)(CF)C(N)=N1` [Compound 4, N-(3-((2S,5S)-6-Amino-5-fluoro-5-(fluoromethyl)-2-methyl-2,3,4,5-tetrahydropyridin-2-yl)-4-fluorophenyl)-5-chloropicolinamide], the efflux ratio at 60 min, 0.5 µM in the data set on P-gp (MDR1) was found to be 1.34. The inhibition at 10 µM on human BACE1 [1] came to 102%. The Ki on human BACE1 [2] was determined as 11 nM.

As to `Cc1nc(C(=O)Nc2ccc(F)c([C@]3(C)CC[C@@](F)(CF)C(N)=N3)c2)co1` [Compound 6], the efflux ratio at 60 min, 0.5 µM with P-gp (MDR1) came out at 7. Besides, the inhibition at 10 µM at human BACE1 [1] turned out to be 106%. Moreover, at human BACE1 [2], the Ki was 46 nM.

On to `Cn1cc(Br)nc1C(=O)Nc1ccc(F)c([C@]2(C)CC[C@@](F)(CF)C(N)=N2)c1` [Compound 7, N-(3-((2S,5S)-6-Amino-5-fluoro-5-(fluoromethyl)-2-methyl-2,3,4,5-tetrahydropyridin-2-yl)-4-fluorophenyl)-4-bromo-1-methyl-1H-imidazole-2-carboxamide], for which, on human BACE1 [1], the inhibition at 10 µM came to 104%. Further, the Ki on human BACE1 [2] was found to be 67 nM.

As for `Cc1csc(C(=O)Nc2ccc(F)c([C@]3(C)CC[C@@](F)(CF)C(N)=N3)c2)n1` [Compound 8, N-(3-((2S,5S)-6-Amino-5-fluoro-5-(fluoromethyl)-2-methyl-2,3,4,5-tetrahydropyridin-2-yl)-4-fluorophenyl)-4-methylthiazole-2-carboxamide], the efflux ratio at 60 min, 0.5 µM with P-gp (MDR1) is 2.36. Besides, the Ki on human BACE1 [2] stood at 62 nM.

Take `C[C@@]1(c2cc(NC(=O)c3coc(C(F)F)n3)ccc2F)CC[C@@](F)(CF)C(N)=N1` [Compound 9]: the efflux ratio at 60 min, 0.5 µM with P-gp (MDR1) was 8.61. In addition, at human BACE1 [1], the inhibition at 10 µM is 103%. Further, on human BACE1 [2], the Ki worked out at 26 nM.

Regarding `C[C@@]1(c2cc(NC(=O)c3ccn(C(F)F)n3)ccc2F)CC[C@@](F)(CF)C(N)=N1` [Compound 10], the efflux ratio at 60 min, 0.5 µM in the data set with P-gp (MDR1) was 10.6. At human BACE1 [1], the inhibition at 10 µM was 103%. Moreover, at human BACE1 [2], the Ki was determined as 22 nM.

`C[C@@]1(c2cc(NC(=O)c3ccc(Cl)cc3)ccc2F)CC[C@@](F)(CF)C(N)=N1` [Compound 12, N-(3-((2S,5S)-6-Amino-5-fluoro-5-(fluoromethyl)-2-methyl-2,3,4,5-tetrahydropyridin-2-yl)-4-fluorophenyl)-4-chlorobenzamide]: at human BACE1 [1], the inhibition at 10 µM was 103%. Also, the Ki at human BACE1 [2] was found to be 140 nM.

For `COc1ccc(C(=O)Nc2ccc(F)c([C@]3(C)CC[C@](F)(CF)C(N)=N3)c2)nc1` [Compound 14, N-(3-((2S,5R)-6-Amino-5-fluoro-5-(fluoromethyl)-2-methyl-2,3,4,5-tetrahydropyridin-2-yl)-4-fluorophenyl)-5-methoxypicolinamide], the efflux ratio at 60 min, 0.5 µM with P-gp (MDR1) is 1.06. Also, the inhibition at 10 µM on human BACE1 [1] amounted to 103%. In addition, at human BACE1 [2], the Ki came out at 130 nM.

For the compound `C[C@@]1(c2cc(NC(=O)c3ccc(F)cn3)cc(F)c2F)CC[C@@](F)(CF)C(N)=N1` [Compound 15, N-[3-[(2S,5S)-6-Amino-5-fluoro-5-(fluoromethyl)-2-methyl-2,3,4,5-tetrahydropyridin-2-yl]-4,5-difluoro-phenyl]-5-fluoro-pyridine-2-carboxamide], the efflux ratio at 60 min, 0.5 µM with P-gp (MDR1) came out at 1.17. In addition, the inhibition at 10 µM on human BACE1 [1] came to 104%. Also, on human BACE1 [2], the Ki is 52 nM.

In the case of `COc1ccc(C(=O)Nc2cc(F)c(F)c([C@]3(C)CC[C@@](F)(CF)C(N)=N3)c2)nc1` [Compound 16, N-[3-[(2S,5S)-6-Amino-5-fluoro-5-(fluoromethyl)-2-methyl-2,3,4,5-tetrahydropyridin-2-yl]-4,5-difluoro-phenyl]-5-methoxy-pyridine-2-carboxamide], the inhibition at 10 µM against human BACE1 [1] came to 104%.

For the compound `C[C@@]1(c2cc(NC(=O)c3ccc(F)cn3)cc(F)c2F)CC[C@](F)(CF)C(N)=N1` [Compound 18, N-[3-[(2S,5R)-6-Amino-5-fluoro-5-(fluoromethyl)-2-methyl-2,3,4,5-tetrahydropyridin-2-yl]-4,5-difluoro-phenyl]-5-fluoro-pyridine-2-carboxamide], the inhibition at 10 µM against human BACE1 [1] was determined as 103%. Further, the Ki on human BACE1 [2] was 300 nM.

`COc1ccc(C(=O)Nc2cc(F)c(F)c([C@]3(C)CC[C@](F)(CF)C(N)=N3)c2)nc1` [Compound 19, N-[3-[(2S,5R)-6-Amino-5-fluoro-5-(fluoromethyl)-2-methyl-2,3,4,5-tetrahydropyridin-2-yl]-4,5-difluoro-phenyl]-5-methoxy-pyridine-2-carboxamide]: the inhibition at 10 µM against human BACE1 [1] turned out to be 104%.

As to `COc1cnc(C(=O)Nc2cc(F)c(F)c([C@]3(C)CC[C@](F)(CF)C(N)=N3)c2)cn1` [Compound 20, N-[3-[(2S,5R)-6-Amino-5-fluoro-5-(fluoromethyl)-2-methyl-2,3,4,5-tetrahydropyridin-2-yl]-4,5-difluoro-phenyl]-5-methoxy-pyrazine-2-carboxamide], the efflux ratio at 60 min, 0.5 µM with P-gp (MDR1) worked out at 0.77. Moreover, at human BACE1 [1], the inhibition at 10 µM was determined as 102%. For the same compound, at human BACE1 [2], the Ki was determined as 230 nM.

Consider `NC1=N[C@](CF)(c2cc(NC(=O)c3ccc(F)cn3)ccc2F)CC[C@@]1(F)CF` [Compound 21, N-[3-[(2S,5S)-6-amino-5-fluoro-2,5-bis(fluoromethyl)-2,3,4,5-tetrahydropyridin-2-yl]-4-fluoro-phenyl]-5-fluoro-pyridine-2-carboxamide], for which, in the data set with P-gp (MDR1), the efflux ratio at 60 min, 0.5 µM was found to be 0.97. In addition, the Ki at human BACE1 [2] was found to be 67 nM.

Consider `COc1cnc(C(=O)Nc2ccc(F)c([C@]3(CF)CC[C@@](F)(CF)C(N)=N3)c2)cn1` [Compound 23, N-[3-[(2S,5S)-6-amino-5-fluoro-2,5-bis(fluoromethyl)-2,3,4,5-tetrahydropyridin-2-yl]-4-fluoro-phenyl]-5-methoxy-pyrazine-2-carboxamide], for which the efflux ratio at 60 min, 0.5 µM in the data set with P-gp (MDR1) came out at 1.06. Also, the Ki on human BACE1 [2] turned out to be 17 nM.

As to `NC1=N[C@](CF)(c2cc(NC(=O)c3ccc(F)cn3)ccc2F)CC[C@]1(F)CF` [Compound 24, N-[3-[(2S,5R)-6-amino-5-fluoro-2,5-bis(fluoromethyl)-2,3,4,5-tetrahydropyridin-2-yl]-4-fluoro-phenyl]-5-fluoro-pyridine-2-carboxamide], in the data set with P-gp (MDR1), the efflux ratio at 60 min, 0.5 µM was found to be 0.88. The Ki on human BACE1 [2] worked out at 180 nM.

For the compound `COc1cnc(C(=O)Nc2ccc(F)c([C@]3(CF)CC[C@](F)(CF)C(N)=N3)c2)cn1` [Compound 26, N-[3-[(2S,5R)-6-amino-5-fluoro-2,5-bis(fluoromethyl)-2,3,4,5-tetrahydropyridin-2-yl]-4-fluoro-phenyl]-5-methoxy-pyrazine-2-carboxamide], the efflux ratio at 60 min, 0.5 µM in the data set on P-gp (MDR1) turned out to be 0.92. In addition, the Ki at human BACE1 [2] came to 160 nM.
